# Literature values as cited in patent US20020098221A1, “Oil-in-water emulsion formulation of insecticides” (priority 2000, published 2002).
# Conditions: at room temperature
row,Compound,solubility in water
1,COCC(C)O (centres unmarked) [1-methoxy-2-propanol],100%
2,OCc1ccccc1 [benzyl alcohol],4%
3,O=C1CCCCC1 [cyclohexanone],8%

# Continued, values first:
row,solubility in water,Compound
1,100%,C[S+](C)[O-] [dimethylsulfoxide]
2,100%,CN1CCCC1=O [n-methylpyrrolidone]
